According to patent publication US12077503B2, “Substituted cyclic amides and their use as herbicides” (FMC CORPORATION, priority 2015, dated 2024):

Columns and labels:
Assay type in all cases: in vivo
[1] = test system: velvetleaf (Abutilon theophrasti); assay: Test G Pre-Emergence Protocol; conditions: Abutilon theophrasti, pre-emergence, 312 h, evaluated after 13 days; for pest or weed control at 15.625 g/ha: 15.625 g ai/ha; for pest or weed control at 15.625 g/ha / pest or weed control at 250 g/ha: read-out: Velvetleaf damage rating (100=total damage to plant; 0=no damage to plant); for pest or weed control at 62.5 g/ha: 62.5 g ai/ha, 100=total damage to plant, 0=no damage to plant, read-out: Velvetleaf damage rating; for pest or weed control at 250 g/ha: 250 g ai/ha
Summary of the method: (§1)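 Spraying took place one day after sowing, at 15.625, 62.5 or 250 g/ha, using an acetone/water (50:50) spray solution containing 0.5% Tween 20. Plants were kept under glasshouse conditions (24/16 °C, 14 h light, 65% humidity, watered twice daily), and injury was rated 0–100 at day 13.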

[2] = test system: barnyardgrass (Echinochloa crus-galli); assay: Test G Pre-Emergence Protocol; conditions: Echinochloa crus-galli, pre-emergence, 312 h, evaluated after 13 days; for pest or weed control at 15.625 g/ha: 15.625 g ai/ha; for pest or weed control at 15.625 g/ha / pest or weed control at 250 g/ha: read-out: Barnyardgrass damage rating (100=total damage to plant; 0=no damage to plant); for pest or weed control at 62.5 g/ha: 62.5 g ai/ha, 100=total damage to plant, 0=no damage to plant, read-out: Barnyardgrass damage rating; for pest or weed control at 250 g/ha: 250 g ai/ha
Summary of the method: as §1

[3] = test system: redroot pigweed (Amaranthus retroflexus); assay: Test G Pre-Emergence Protocol; conditions: Amaranthus retroflexus, pre-emergence, 312 h, evaluated after 13 days; for pest or weed control at 15.625 g/ha: 15.625 g ai/ha; for pest or weed control at 15.625 g/ha / pest or weed control at 250 g/ha: read-out: Pigweed, Redroot damage rating (100=total damage to plant; 0=no damage to plant); for pest or weed control at 62.5 g/ha: 62.5 g ai/ha, 100=total damage to plant, 0=no damage to plant, read-out: Pigweed, Redroot damage rating; for pest or weed control at 250 g/ha: 250 g ai/ha
Summary of the method: as §1

[4] = test system: giant foxtail (Setaria faberi); assay: Test G Pre-Emergence Protocol; conditions: Setaria faberi, pre-emergence, 312 h, evaluated after 13 days; for pest or weed control at 15.625 g/ha: 15.625 g ai/ha; for pest or weed control at 15.625 g/ha / pest or weed control at 250 g/ha: read-out: Foxtail, Giant damage rating (100=total damage to plant; 0=no damage to plant); for pest or weed control at 62.5 g/ha: 62.5 g ai/ha, 100=total damage to plant, 0=no damage to plant, read-out: Foxtail, Giant damage rating; for pest or weed control at 250 g/ha: 250 g ai/ha
Summary of the method: as §1

[5] = test system: corn (Zea mays); assay: Test G Pre-Emergence Protocol; conditions: Zea mays, pre-emergence, 312 h, evaluated after 13 days; for plant injury at 15.625 g/ha: 15.625 g ai/ha; for plant injury at 15.625 g/ha / plant injury at 250 g/ha: read-out: Corn damage rating (100=total damage to plant; 0=no damage to plant); for plant injury at 62.5 g/ha: 62.5 g ai/ha, 100=total damage to plant, 0=no damage to plant, read-out: Corn damage rating; for plant injury at 250 g/ha: 250 g ai/ha
Summary of the method: as §1

[6] = test system: ivy-leaved morning glory (Ipomoea hederacea); assay: Test G Pre-Emergence Protocol; conditions: Ipomoea, pre-emergence, 312 h, evaluated after 13 days; for pest or weed control at 15.625 g/ha: 15.625 g ai/ha; for pest or weed control at 62.5 g/ha: 62.5 g ai/ha, 100=total damage to plant, 0=no damage to plant, read-out: Morningglory, Ivy-leaved damage rating
Summary of the method: as §1

[7] = test system: velvetleaf (Abutilon theophrasti); assay: Test G Post-Emergence Protocol; conditions: Abutilon theophrasti, post-emergence, 312 h, read-out: Velvetleaf damage rating; for pest or weed control at 15.625 g/ha: 15.625 g ai/ha, evaluated after 13 days (100=total damage to plant; 0=no damage to plant); for pest or weed control at 62.5 g/ha: 62.5 g ai/ha; for pest or weed control at 62.5 g/ha / pest or weed control at 250 g/ha: evaluated after 13 days, 100=total damage to plant, 0=no damage to plant; for pest or weed control at 250 g/ha: 250 g ai/ha
Summary of the method: (§2)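 Seedlings grown 8 days in soil in a glasshouse (24/16 °C day/night, 14 h light, 65% humidity) were sprayed post-emergence with compound in acetone/water 50:50 plus 0.5% Tween 20 at 15.625, 62.5 or 250 g/ha. Damage was scored after 13 days on a 0–100 scale (100 = total damage).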

[8] = test system: barnyardgrass (Echinochloa crus-galli); assay: Test G Post-Emergence Protocol; conditions: Echinochloa crus-galli, post-emergence, 312 h, read-out: Barnyardgrass damage rating; for pest or weed control at 15.625 g/ha: 15.625 g ai/ha, evaluated after 13 days (100=total damage to plant; 0=no damage to plant); for pest or weed control at 62.5 g/ha: 62.5 g ai/ha; for pest or weed control at 62.5 g/ha / pest or weed control at 250 g/ha: evaluated after 13 days, 100=total damage to plant, 0=no damage to plant; for pest or weed control at 250 g/ha: 250 g ai/ha
Summary of the method: as §2

[9] = test system: redroot pigweed (Amaranthus retroflexus); assay: Test G Post-Emergence Protocol; conditions: Amaranthus retroflexus, post-emergence, 312 h, read-out: Pigweed, Redroot damage rating; for pest or weed control at 15.625 g/ha: 15.625 g ai/ha, evaluated after 13 days (100=total damage to plant; 0=no damage to plant); for pest or weed control at 62.5 g/ha: 62.5 g ai/ha; for pest or weed control at 62.5 g/ha / pest or weed control at 250 g/ha: evaluated after 13 days, 100=total damage to plant, 0=no damage to plant; for pest or weed control at 250 g/ha: 250 g ai/ha
Summary of the method: as §2

[10] = test system: giant foxtail (Setaria faberi); assay: Test G Post-Emergence Protocol; conditions: Setaria faberi, post-emergence, 312 h, read-out: Foxtail, Giant damage rating; for pest or weed control at 15.625 g/ha: 15.625 g ai/ha, evaluated after 13 days (100=total damage to plant; 0=no damage to plant); for pest or weed control at 62.5 g/ha: 62.5 g ai/ha; for pest or weed control at 62.5 g/ha / pest or weed control at 250 g/ha: evaluated after 13 days, 100=total damage to plant, 0=no damage to plant; for pest or weed control at 250 g/ha: 250 g ai/ha
Summary of the method: as §2

[11] = test system: corn (Zea mays); assay: Test G Post-Emergence Protocol; conditions: Zea mays, post-emergence, 312 h, read-out: Corn damage rating; for plant injury at 15.625 g/ha: 15.625 g ai/ha, evaluated after 13 days (100=total damage to plant; 0=no damage to plant); for plant injury at 62.5 g/ha: 62.5 g ai/ha; for plant injury at 62.5 g/ha / plant injury at 250 g/ha: evaluated after 13 days, 100=total damage to plant, 0=no damage to plant; for plant injury at 250 g/ha: 250 g ai/ha
Summary of the method: as §2

[12] = test system: ivy-leaved morning glory (Ipomoea hederacea); assay: Test G Post-Emergence Protocol; conditions: Ipomoea, post-emergence, 312 h, read-out: Morningglory, Ivy-leaved damage rating; for pest or weed control at 15.625 g/ha: 15.625 g ai/ha, evaluated after 13 days (100=total damage to plant; 0=no damage to plant); for pest or weed control at 62.5 g/ha: 62.5 g ai/ha; for pest or weed control at 62.5 g/ha / pest or weed control at 250 g/ha: evaluated after 13 days, 100=total damage to plant, 0=no damage to plant; for pest or weed control at 250 g/ha: 250 g ai/ha
Summary of the method: as §2

[13] = read-out: Morningglory, Ivy-leaved damage rating (100=total damage to plant; 0=no damage to plant)

Row | SMILES | pest or weed control at 15.625 g/ha [1] | pest or weed control at 62.5 g/ha [1] | pest or weed control at 250 g/ha [1] | pest or weed control at 15.625 g/ha [2] | pest or weed control at 62.5 g/ha [2] | pest or weed control at 250 g/ha [2] | pest or weed control at 15.625 g/ha [3] | pest or weed control at 62.5 g/ha [3] | pest or weed control at 250 g/ha [3] | pest or weed control at 15.625 g/ha [4] | pest or weed control at 62.5 g/ha [4] | pest or weed control at 250 g/ha [4] | plant injury at 15.625 g/ha [5] | plant injury at 62.5 g/ha [5] | plant injury at 250 g/ha [5] | pest or weed control at 15.625 g/ha [6, 13] | pest or weed control at 62.5 g/ha [6] | pest or weed control at 15.625 g/ha [7] | pest or weed control at 62.5 g/ha [7] | pest or weed control at 250 g/ha [7] | further results
1 | Cc1c(F)ccc(NC(=O)[C@@H]2C(=O)N(C)C[C@H]2c2ccc(C(F)(F)F)cc2)c1Cl (racemic) [Compound 1651] | 0% | 0% | 10% | 0% | 0% | 20% | 0% | 10% | 20% | 0% | 20% | 80% | 0% | 0% | 0% | 0% | 0% | 0% | 0% | 10% | pest or weed control at 250 g/ha ([6]; 250 g ai/ha, read-out: Morningglory, Ivy-leaved damage rating (100=total damage to plant; 0=no damage to plant)): 0%; pest or weed control at 15.625 g/ha [8]: 0%; pest or weed control at 62.5 g/ha [8]: 30%; pest or weed control at 250 g/ha [8]: 10%; pest or weed control at 15.625 g/ha [9]: 0%; pest or weed control at 62.5 g/ha [9]: 0%; pest or weed control at 250 g/ha [9]: 0%; pest or weed control at 15.625 g/ha [10]: 0%; pest or weed control at 62.5 g/ha [10]: 70%; pest or weed control at 250 g/ha [10]: 90%; plant injury at 15.625 g/ha [11]: 0%; plant injury at 62.5 g/ha [11]: 0%; plant injury at 250 g/ha [11]: 0%; pest or weed control at 15.625 g/ha [12]: 0%; pest or weed control at 62.5 g/ha [12]: 10%; pest or weed control at 250 g/ha [12]: 10%
2 | Cc1nc(F)ccc1NC(=O)[C@@H]1C(=O)N(C)C[C@H]1c1ccc(C(F)(F)F)cc1 (racemic) [Compound 1654] | 0% | 0% | 10% | 0% | 0% | 80% | 0% | 0% | 0% | 20% | 60% | 90% | 0% | 0% | 20% | 0% | 0% | 0% | 20% | 40% | pest or weed control at 15.625 g/ha [8]: 0%; pest or weed control at 62.5 g/ha [8]: 20%; pest or weed control at 250 g/ha [8]: 60%; pest or weed control at 15.625 g/ha [9]: 10%; pest or weed control at 62.5 g/ha [9]: 20%; pest or weed control at 250 g/ha [9]: 30%; pest or weed control at 15.625 g/ha [10]: 20%; pest or weed control at 62.5 g/ha [10]: 40%; pest or weed control at 250 g/ha [10]: 80%; plant injury at 15.625 g/ha [11]: 0%; plant injury at 62.5 g/ha [11]: 0%; plant injury at 250 g/ha [11]: 20%; pest or weed control at 15.625 g/ha [12]: 10%; pest or weed control at 62.5 g/ha [12]: 20%; pest or weed control at 250 g/ha [12]: 30%
